Test results: PMC11605291 (Frontiers in Pharmacology, 2024)

Experiments:
[1] = Metabolite profiling and identification in plasma, urine and feces (LC/RAM/MS); assay type: in vivo, human; conditions: for Plasma %AUC (percentage of total plasma radioactivity): AUC-pooled 0–72 h plasma; for Plasma %AUC (percentage of total plasma radioactivity) / Feces %Dose / Urine %Dose: mean of 6 subjects; for Feces %Dose: pooled 0–168 h feces, total in feces 62.08%; for Urine %Dose: pooled 0–72 h urine, total in urine 37.15%
Description: The plasma samples from six subjects were pooled individually according to the AUC method to obtain 6 plasma samples of 0–72 h ([Hop et al., 1998]). A portion of the proportionally mixed plasma sample was taken and added to a certain volume of acetonitrile (3×, v/v) for extraction, vortexed for 1 min, shaken for 10 min and then stored in a refrigerator at 4°C for 30 min, the mixture was removed and vortexed for 2 min and then centrifuged for 10 min at 10,000×g and 4°C. The residue from the extraction was firstly ultrasonically suspended using 1 mL of ultrapure water and then extracted using methanol (2×, v/v) and repeated twice. The organic solvent extracts were combined, blown dry with nitrogen and reconstituted with acetonitrile: ultrapure water (1:1), the reconstituted solution was centrifuged at 4°C and 10,000×g for 10 min, and the supernatant was used for radio-metabolite profiling.
The radioactivity in the organic solvent extract and the reconstitution solution was determined by LSC. The solid residue after extraction was dissolved by heating with 1N KOH solution and added to the scintillation solution to determine its radioactivity. All the final data were used to examine the recovery of radioactivity during plasma extraction.
The urine samples from the six subjects were mixed in the same volume percentage to obtain six 0–72 h urine samples. A portion of the proportionally mixed urine sample was centrifuged for 10 min at approximately 10,000×g and 4°C. Two samples were taken before and after centrifugation, and the radioactivity of the samples was determined by LSC, and the data obtained were used to calculate the recovery of radioactivity during the centrifugation process. A portion of the supernatant after centrifugation was used directly for radio-metabolite profiling.
The fecal samples from the six subjects were mixed with the same weight percentage to obtain 6 fecal homogenate samples of 0–168 h. A portion of the proportionally mixed fecal homogenate samples was taken and extracted by adding a volume of acetonitrile (3×, v/v), vortexed for 5 min at room temperature, sonicated for 5 min and then centrifuged for 10 min at 10,000 × g and 4°C. The residue of the extracted material was firstly sonicated and mixed using about 1 mL of ultrapure water before extracted using methanol (2×, v/v). The process was repeated twice and the organic extracts were combined, blown dry using nitrogen and then reconstituted with dimethyl sulfoxide: acetonitrile: ultrapure water (3:2:5), the reconstituted solution was centrifuged at 10,000×g at 4°C for 10 min and the supernatant was used for radio-metabolite profiling. […] LSC was used to determine the intensity of radioactivity contained in the organic solvent extract and in the reconstituted solution. The solid residue after extraction is fully combusted by an oxidative combustor, and the [^14C]carbon dioxide produced by combustion of the sample is captured with a scintillation solution to determine its radioactivity intensity. All final data were used to examine the extraction and recovery of radioactivity from fecal homogenate samples.
A high performance liquid chromatograph coupled with an online isotope detector and mass spectrometry (LC/RAM/MS) was used for the identification of radioactive metabolite profiles. The HPLC method consisted of an HPLC system (Shimadzu UFLC-20A-Lite), a chromatographic column (ACE Excel 3 C18, 150 × 4.6 mm id), mobile phase A (0.4% aqueous formic acid, pH = 3.2 adjusted with ammonia) and mobile phase B (acetonitrile) at a flow rate of 0.7 mL/min. The gradient was 0% B for the 0–5 min, 20% B from 15 min to 30 min, 22% B from 32 to 40 min, and 70%–100% B from 60 to 72 min. The column temperature was 28°C. […]

[2] = test system: cDNA-expressed recombinant human cytochrome P450s and silensomes as well as human liver microsomes with selective chemical CYP inhibitors; set-up: method as in unpublished data; conditions: conducted in Hutch-Med DMPK department ref unpublished data; cited from earlier work

Structure (SMILES) | F: %Dose in feces (Figure 4) [1] | P: %AUC in plasma (Figure 4) [1] | Plasma %AUC (percentage of total plasma radioactivity) [1] | Feces %Dose [1] | %Dose in pooled feces ([1]; subject 01001) [%Dose] | %Dose in pooled feces ([1]; subject 01002) [%Dose] | %Dose in pooled feces ([1]; subject 01003) [%Dose] | %AUC in AUC-pooled plasma ([1]; subject 01004) [%AUC] | %Dose in pooled feces ([1]; subject 01004) [%Dose] | %AUC in AUC-pooled plasma ([1]; subject 01005) [%AUC] | %Dose in pooled feces ([1]; subject 01005) [%Dose] | %AUC in AUC-pooled plasma ([1]; subject 01006) [%AUC] | %Dose in pooled feces ([1]; subject 01006) [%Dose] | enzyme involved in the formation of the metabolite from amdizalisib [2] | U: %Dose in urine (Figure 4) [1] | Urine %Dose [1] | also measured
C[C@H](Nc1ncnc(N)c1C#N)c1cc2ncc(Cl)n2nc1-c1ccc(O)cc1 [M406-1] | 5.06% | 0.12% | 0.12 %AUC | 5.06 %Dose | 4.78 | 5.18 | 5.65 | 0.16 | 6.15 | 0.26 | 4.03 | 0.27 | 4.54 | formed primarily by CYP2C9 | – | – | –
C[C@H](Nc1ncnc(N)c1C(N)=O)c1cc2ncc(Cl)n2nc1-c1ccccc1 [M408] | 1.04% | + | detected by mass spectrometry, but could not be quantified and + | 1.04 %Dose | 0.40 | 0.91 | 2.11 | – | 0.69 | – | 1.53 | – | 0.60 | – | + | detected by mass spectrometry, but could not be quantified and + | –
C[C@H](Nc1nc(O)nc(N)c1C#N)c1cc2ncc(Cl)n2nc1-c1ccccc1 [M406-2] | 11.30% | 20.91% | 20.91 %AUC | 11.30 %Dose | 9.93 | 13.05 | 10.17 | 16.67 | 5.32 | 20.09 | 14.97 | 36.04 | 14.33 | aldehyde oxidase | 8.08% | 8.08 %Dose | contribution to amdizalisib metabolism ([1]; estimated from the metabolite amounts in excreta): around 20%; %AUC in AUC-pooled plasma ([1]; subject 01001): 16.31 %AUC; %Dose in pooled urine ([1]; subject 01001): 8.77 %Dose; %AUC in AUC-pooled plasma ([1]; subject 01002): 16.12 %AUC; %Dose in pooled urine ([1]; subject 01002): 9.03 %Dose; %AUC in AUC-pooled plasma ([1]; subject 01003): 20.20 %AUC; %Dose in pooled urine ([1]; subject 01003): 8.92 %Dose; %Dose in pooled urine ([1]; subject 01004): 7.29 %Dose; %Dose in pooled urine ([1]; subject 01005): 6.50 %Dose; %Dose in pooled urine ([1]; subject 01006): 7.98 %Dose
CC(=O)c1cc2ncc(Cl)n2nc1-c1ccccc1 [M271] | + | + | detected by mass spectrometry, but could not be quantified and + | detected by mass spectrometry, but could not be quantified and + | – | – | – | – | – | – | – | – | – | – | + | detected by mass spectrometry, but could not be quantified and + | –
